Test results: PubChem BioAssay AID328 (DTP/NCI, 2004)
Values joined by “and” are separate entries in the source; they are usually repeats but may differ in a detail not shown here. Equal entries are not always repeated. Toxic doses and inconclusive results are not listed. Rule for the calls: active = survival T/C of 150% or more; inactive = T/C below 125% in these data. Non-standard residues stand in square brackets, D forms with d. Residues, ends and D or L forms follow the SMILES beside them. ξ: configuration not given here. ξPhe(4-N(CH2CH2Cl)2) = NC(Cc1ccc(N(CCCl)CCCl)cc1)C(=O)O

System: BDF1 mice, P388 leukemia ip, median survival T/C
Test: NCI In Vivo Anticancer Drug Screen. Data for tumor model P388 Leukemia (intraperitoneal) in B6D2F1 (BDF1) mice
Details: endpoint: median survival time, higher = longer survival
Procedure, shortened: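 Antitumour effect was judged in vivo: survival in drug-treated mice, normalised to that of vehicle-dosed controls, gives the reported T/C.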

[1] = dose: 6.25 mg/kg/injection, schedule: Q01DX009 (ip), vehicle: saline with Tween-80
[2] = dose: 25.0 mg/kg/injection, schedule: Q01DX009 (ip), vehicle: saline with Tween-80
[3] = dose: 50.0 mg/kg/injection, schedule: Q01DX009 (ip), vehicle: Klucel (hydroxypropylcellulose) (HPC)
[4] = dose: 100.0 mg/kg/injection, schedule: Q01DX009 (ip), vehicle: Klucel (hydroxypropylcellulose) (HPC)
[5] = dose: 50.0 mg/kg/injection, schedule: Q04DX003 (ip), vehicle: saline
[6] = dose: 100.0 mg/kg/injection, schedule: Q04DX003 (ip), vehicle: saline
[7] = dose: 200.0 mg/kg/injection, schedule: Q04DX003 (ip), vehicle: saline
[8] = dose: 100.0 mg/kg/injection, schedule: Q01DX001 (ip), vehicle: saline with Tween-80
[9] = dose: 100.0 mg/kg/injection, schedule: Q01DX009 (ip), vehicle: saline with Tween-80
[10] = dose: 25.0 mg/kg/injection, schedule: Q01DX009 (ip), vehicle: saline
[11] = dose: 50.0 mg/kg/injection, schedule: Q01DX009 (ip), vehicle: saline
[12] = dose: 100.0 mg/kg/injection, schedule: Q01DX009 (ip), vehicle: saline
[13] = dose: 12.5 mg/kg/injection, schedule: Q01DX009 (ip), vehicle: saline with Tween-80
[14] = dose: 50.0 mg/kg/injection, schedule: Q01DX009 (ip), vehicle: saline with Tween-80

Measured: T/C

Nc1ncc(C(=O)O)c(N)n1
inactive: dose: 0.75 mg/kg/injection, schedule: Q01DX009 (ip), vehicle: saline with Tween-80 87 % of control | dose: 1.5 mg/kg/injection, schedule: Q01DX009 (ip), vehicle: saline with Tween-80 104 % of control | dose: 3.0 mg/kg/injection, schedule: Q01DX009 (ip), vehicle: saline with Tween-80 91 % of control | [1] 88 % of control | dose: 12.5 mg/kg/injection, schedule: Q04DX003 (ip), vehicle: saline with Tween-80 100 % of control | [2] 111 % of control | dose: 25.0 mg/kg/injection, schedule: Q04DX003 (ip), vehicle: saline with Tween-80 100 % of control | dose: 50.0 mg/kg/injection, schedule: Q04DX003 (ip), vehicle: saline with Tween-80 100 % of control

O=S(=O)(O)c1ccc(-c2ccccc2)cc1
inactive: dose: 25.0 mg/kg/injection, schedule: Q01DX009 (ip), vehicle: Klucel (hydroxypropylcellulose) (HPC) 95 % of control | [3] 87 % of control | [4] 95 % of control | dose: 100.0 mg/kg/injection, schedule: Q04DX003 (ip), vehicle: Klucel (hydroxypropylcellulose) (HPC) 88 % of control

Nc1nc(=O)n(C2OC(CO)C(O)C2O)c2nc(I)[nH]c12 (configuration not stated)
inactive: dose: 12.5 mg/kg/injection, schedule: Q04DX003 (ip), vehicle: saline 97 % of control | dose: 25.0 mg/kg/injection, schedule: Q04DX003 (ip), vehicle: saline 97 % of control | [5] 105 % of control | [6] 108 % of control | [7] 111 % of control

Clc1cccc(N2CN(c3cccc(Cl)c3)CN(c3cccc(Cl)c3)C2)c1
inactive: [8] 90 % of control | dose: 200.0 mg/kg/injection, schedule: Q01DX001 (ip), vehicle: saline with Tween-80 87 % of control | dose: 400.0 mg/kg/injection, schedule: Q01DX001 (ip), vehicle: saline with Tween-80 91 % of control

CCCCCCCCCCCCCCCC(=O)N(CCC#N)CCC#N
inactive: dose: 66.0 mg/kg/injection, schedule: Q01DX009 (ip), vehicle: saline with Tween-80 91 % of control | [9] 91 % of control | dose: 150.0 mg/kg/injection, schedule: Q01DX009 (ip), vehicle: saline with Tween-80 108 % of control

Cn1c(/N=C(/N)N=C(N)N)cc(=O)n(C)c1=O
inactive: [5] 104 % of control | [6] 100 % of control | [7] 95 % of control

O=C(O)CCC(=O)CCl
inactive: dose: 12.0 mg/kg/injection, schedule: Q01DX009 (ip), vehicle: saline 120 % of control

COc1ccccc1OC(=O)Nc1ccccc1F
inactive: dose: 100.0 mg/kg/injection, schedule: Q04DX003 (ip), vehicle: saline with Tween-80 90 % of control | dose: 200.0 mg/kg/injection, schedule: Q04DX003 (ip), vehicle: saline with Tween-80 90 % of control | dose: 400.0 mg/kg/injection, schedule: Q04DX003 (ip), vehicle: saline with Tween-80 100 % of control

Nc1ccc(C(=O)CC(C(=O)O)c2ccccc2)cc1 (configuration not stated)
inactive: dose: 100.0 mg/kg/injection, schedule: Q04DX002 (ip), vehicle: saline with Tween-80 88 % of control | dose: 200.0 mg/kg/injection, schedule: Q04DX002 (ip), vehicle: saline with Tween-80 90 % of control | dose: 400.0 mg/kg/injection, schedule: Q04DX002 (ip), vehicle: saline with Tween-80 99 % of control

CCNC1(c2ccc(Cl)cc2)CCCCC1=O (configuration not stated)
inactive: [10] 100 % of control | [11] 95 % of control and 100 % of control | [5] 100 % of control | [12] 86 % of control | [6] 95 % of control

CCCC=C=CCN(C)C
inactive: dose: 12.5 mg/kg/injection, schedule: Q04DX002 (ip), vehicle: saline 96 % of control | dose: 25.0 mg/kg/injection, schedule: Q04DX002 (ip), vehicle: saline 100 % of control | dose: 50.0 mg/kg/injection, schedule: Q04DX002 (ip), vehicle: saline 112 % of control

Cc1cc([N+](=O)[O-])cc([N+](=O)[O-])c1OC(=O)c1ccc(N=C(N)N)cc1
inactive: [10] 110 % of control | [11] 110 % of control | [5] 109 % of control | [12] 110 % of control | [6] 100 % of control | dose: 150.0 mg/kg/injection, schedule: Q01DX009 (ip), vehicle: saline 110 % of control | [7] 90 % of control

O=Cc1ccc([N+](=O)[O-])s1
inactive: dose: 3.13 mg/kg/injection, schedule: Q01DX009 (ip), vehicle: saline with Tween-80 99 % of control | [1] 99 % of control and 118 % of control | [13] 115 % of control | [2] 123 % of control | [14] 118 % of control

CC1CNCC(C)N1C(=O)c1ccccc1 (configuration not stated)
inactive: dose: 0.1 mg/kg/injection, schedule: Q01DX009 (ip), vehicle: water 96 % of control | dose: 0.2 mg/kg/injection, schedule: Q01DX009 (ip), vehicle: water 105 % of control | dose: 0.4 mg/kg/injection, schedule: Q01DX009 (ip), vehicle: water 115 % of control | dose: 0.78 mg/kg/injection, schedule: Q04DX003 (ip), vehicle: water 97 % of control | dose: 1.56 mg/kg/injection, schedule: Q04DX003 (ip), vehicle: water 104 % of control | dose: 3.12 mg/kg/injection, schedule: Q04DX003 (ip), vehicle: water 104 % of control | dose: 6.25 mg/kg/injection, schedule: Q04DX003 (ip), vehicle: water 88 % of control

COc1cc(C=O)cc(O)c1O
inactive: dose: 100.0 mg/kg/injection, schedule: Q01DX009 (ip), vehicle: saline sonified 95 % of control | dose: 176.0 mg/kg/injection, schedule: Q01DX009 (ip), vehicle: saline sonified 91 % of control | dose: 200.0 mg/kg/injection, schedule: Q01DX009 (ip), vehicle: saline sonified 120 % of control | dose: 264.0 mg/kg/injection, schedule: Q01DX009 (ip), vehicle: saline sonified 104 % of control

O=C1c2ccccc2S(=O)(=O)c2cc(-c3nn[nH]n3)ccc21
inactive: [3] 106 % of control | [4] 94 % of control | dose: 200.0 mg/kg/injection, schedule: Q01DX009 (ip), vehicle: Klucel (hydroxypropylcellulose) (HPC) 104 % of control

COc1ccc(NC(=S)Nc2ccccn2)cc1
inactive: [13] 100 % of control | [2] 100 % of control | [14] 104 % of control | dose: 100.0 mg/kg/injection, schedule: Q01DX001 (ip), vehicle: saline 103 % of control | [9] 100 % of control | dose: 200.0 mg/kg/injection, schedule: Q01DX001 (ip), vehicle: saline 111 % of control | dose: 200.0 mg/kg/injection, schedule: Q01DX009 (ip), vehicle: saline with Tween-80 96 % of control | dose: 400.0 mg/kg/injection, schedule: Q01DX001 (ip), vehicle: saline 107 % of control | dose: 400.0 mg/kg/injection, schedule: Q01DX009 (ip), vehicle: saline with Tween-80 104 % of control

CCCCN(CCCC)CC(O)c1ccnc2cc3c(cc12)OCO3 (configuration not stated)
inactive: dose: 25.0 mg/kg/injection, schedule: Q01DX001 (ip), vehicle: Klucel (hydroxypropylcellulose) (HPC) 104 % of control | dose: 50.0 mg/kg/injection, schedule: Q01DX001 (ip), vehicle: Klucel (hydroxypropylcellulose) (HPC) 104 % of control | dose: 100.0 mg/kg/injection, schedule: Q01DX001 (ip), vehicle: Klucel (hydroxypropylcellulose) (HPC) 100 % of control | [8] 100 % of control

NC(CO)C(=O)NC(CCC(=O)O)C(=O)NC(CO)C(=O)NC(CCC(=O)O)C(=O)NC(Cc1ccc(N(CCCl)CCCl)cc1)C(=O)O (configuration not stated) (H-SESE[ξPhe(4-N(CH2CH2Cl)2)]-OH; configuration not given here)
inactive: dose: 5.0 mg/kg/injection, schedule: Q04DX003 (ip), vehicle: water 100 % of control | dose: 10.0 mg/kg/injection, schedule: Q04DX003 (ip), vehicle: water 98 % of control | dose: 20.0 mg/kg/injection, schedule: Q04DX003 (ip), vehicle: water 97 % of control | dose: 40.0 mg/kg/injection, schedule: Q04DX003 (ip), vehicle: water 100 % of control

CC(C)[CH2][Sn]([CH2]C(C)C)([CH2]C(C)C)[C](C)(C)C
inactive: [6] 103 % of control | [7] 112 % of control | dose: 400.0 mg/kg/injection, schedule: Q04DX003 (ip), vehicle: saline 112 % of control
